Laboratory results published in ChEMBL document CHEMBL1133782, “Solid-phase synthesis of cyclic alkoxyketones, inhibitors of the cysteine protease cathepsin K” (Bioorg Med Chem Lett, 2001).

biological target: T1, Cathepsin K (Homo sapiens, UniProt P43235); test: Inhibitory activity against human cysteine protease, cathepsin K.
T1 sequence (P43235 whole entry): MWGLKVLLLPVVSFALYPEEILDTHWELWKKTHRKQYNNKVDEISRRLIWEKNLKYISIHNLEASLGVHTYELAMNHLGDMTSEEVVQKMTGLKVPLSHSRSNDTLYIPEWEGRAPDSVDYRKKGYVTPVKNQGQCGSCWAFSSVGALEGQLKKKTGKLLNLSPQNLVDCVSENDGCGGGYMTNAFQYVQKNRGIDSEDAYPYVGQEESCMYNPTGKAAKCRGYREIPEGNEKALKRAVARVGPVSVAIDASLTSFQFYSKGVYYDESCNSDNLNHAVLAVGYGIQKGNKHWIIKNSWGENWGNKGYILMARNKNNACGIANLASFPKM

Row | SMILES | Ki [nM]
1 | CC(C)C[C@H](NC(=O)c1ccc(F)c(F)c1)C(=O)NC1COCC1=O (some centres undefined) | 820
2 | CC(C)C[C@H](NC(=O)c1cc2ccccc2s1)C(=O)NC1COCC1=O (some centres undefined) | 11
3 | CC(C)[C@H](NC(=O)c1cc2ccccc2s1)C(=O)NC1COCC1=O (some centres undefined) | > 10000
4 | CC(C)C[C@H](NC(=O)c1cc2ccccc2o1)C(=O)NC1COCC1=O (some centres undefined) | 53
5 | O=C(N[C@@H](Cn1ccnc1)C(=O)NC1COCC1=O)c1cc2ccccc2s1 (some centres undefined) | > 10000
6 | COCC(=O)[C@H](C)NC(=O)[C@H](CC(C)C)NC(=O)OCc1ccccc1 | 60
7 | O=C(CNC(=O)c1cc2ccccc2s1)NC1COCC1=O (centres undefined) | > 10000
8 | NC(=O)CC[C@H](NC(=O)c1cc2ccccc2s1)C(=O)NC1COCC1=O (some centres undefined) | > 10000
9 | NCCCC[C@H](NC(=O)c1cc2ccccc2s1)C(=O)NC1COCC1=O (some centres undefined) | > 10000
10 | O=C(O)CC[C@H](NC(=O)c1cc2ccccc2s1)C(=O)NC1COCC1=O (some centres undefined) | > 10000
11 | CC(C)C[C@H](NC(=O)c1ccccc1)C(=O)NC1COCC1=O (some centres undefined) | 180
12 | CC(C)C[C@H](NC(=O)c1ccc(-c2ccccc2)cc1)C(=O)NC1COCC1=O (some centres undefined) | 19
13 | CC(C)C[C@H](NC(=O)c1ccc2ccccc2c1)C(=O)NC1COCC1=O (some centres undefined) | 61
14 | CC(C)C[C@H](NC(=O)c1ccccn1)C(=O)NC1COCC1=O (some centres undefined) | 420
15 | CC(O)[C@H](NC(=O)c1cc2ccccc2s1)C(=O)NC1COCC1=O (some centres undefined) | > 10000
16 | CC(C)C[C@H](NC(=O)c1ccc(S(C)(=O)=O)cc1)C(=O)NC1COCC1=O (some centres undefined) | 710
17 | CC(C)C[C@H](NC(=O)c1ccc(C(C)C)cc1)C(=O)NC1COCC1=O (some centres undefined) | 64
18 | O=C(N[C@@H](Cc1ccccc1)C(=O)NC1COCC1=O)c1cc2ccccc2s1 (some centres undefined) | > 10000
19 | CC(C)C[C@H](NC(=O)c1ccc(C(C)(C)C)cc1)C(=O)NC1COCC1=O (some centres undefined) | 15
20 | CC(=O)N[C@@H](CC(C)C)C(=O)NC1COCC1=O (some centres undefined) | > 1000
21 | CC(C)C[C@H](NC(=O)c1cccs1)C(=O)NC1COCC1=O (some centres undefined) | 640
22 | O=C(N[C@@H](CC1CCCCC1)C(=O)NC1COCC1=O)c1cc2ccccc2s1 (some centres undefined) | > 10000
23 | C[C@H](NC(=O)c1cc2ccccc2s1)C(=O)NC1COCC1=O (some centres undefined) | > 10000
24 | CC(C)C[C@H](NC(=O)C1CCCCC1)C(=O)NC1COCC1=O (some centres undefined) | > 1000
25 | CC(C)C[C@H](NC(=O)OCc1ccccc1)C(=O)NC1COCC1=O (some centres undefined) | 140
26 | CC(C)C[C@H](NC(=O)c1ccc2cc[nH]c2c1)C(=O)NC1COCC1=O (some centres undefined) | 38
27 | CCC[C@H](NC(=O)c1cc2ccccc2s1)C(=O)NC1COCC1=O (some centres undefined) | 190
28 | CC(C)C[C@H](NC(=O)c1cccc([N+](=O)[O-])c1)C(=O)NC1COCC1=O (some centres undefined) | > 1000
29 | CC(C)C[C@H](NC(=O)c1ccc2ccccc2n1)C(=O)NC1COCC1=O (some centres undefined) | 44
